Experimental data published in the supplement of paper PMC10307832.

How the values were obtained:
Assay in all cases: relative viability (nuclei count vs DMSO), 5 days (fraction); higher = more cells survive
NCI-H650 = test system: NCI-H650
Method in brief: (§1)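 A single step with final 0.05% Triton X-100, 1% formaldehyde and 1 ug/ml Hoechst fixed the cells and stained nuclei 5 days after treatment. Lung cancer cell lines in 1536-well plates had been treated by pin tool the day after seeding with one drug alone or a fixed anchor-drug dose plus five library-drug doses (not always all listed) in √10 steps, and nuclei were counted on 4× images. Relative viability is the ratio of nuclei in treated wells to nuclei in vehicle wells, taken as the median of duplicate plates.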

201T = test system: 201T
Method in brief: as §1

COR-L23 = test system: COR-L23
Method in brief: as §1

NCI-H838 = test system: NCI-H838
Method in brief: as §1

NCI-H1666 = test system: NCI-H1666
Method in brief: as §1

NCI-H441 = test system: NCI-H441
Method in brief: as §1

HARA = test system: HARA
Method in brief: as §1

A-427 = test system: A-427
Method in brief: as §1

EKVX = test system: EKVX
Method in brief: as §1

NCI-H1975 = test system: NCI-H1975
Method in brief: as §1

HCC-827 = test system: HCC-827
Method in brief: as §1

NCI-H596 = test system: NCI-H596
Method in brief: as §1

HCC-15 = test system: HCC-15
Method in brief: as §1

HCC-44 = test system: HCC-44
Method in brief: as §1

NCI-H23 = test system: NCI-H23
Method in brief: as §1

NCI-H1792 = test system: NCI-H1792
Method in brief: as §1

COR-L 105 = test system: COR-L 105
Method in brief: as §1

NCI-H1437 = test system: NCI-H1437
Method in brief: as §1

BEN = test system: BEN
Method in brief: as §1

CC1(C)CCC(c2ccc(Cl)cc2)=C(CN2CCN(c3ccc(C(=O)NS(=O)(=O)c4ccc(N[C@H](CCN5CCOCC5)CSc5ccccc5)c(S(=O)(=O)C(F)(F)F)c4)cc3)CC2)C1 [Navitoclax] + CC(C)C[C@H](NC(=O)[C@H](Cc1ccccc1)NC(=O)c1cnccn1)B(O)O [Bortezomib] (partner 0.002 µM) was tested, and the relative viability (NCI-H650; first compound 0.005 µM) was 0.742, the relative viability (NCI-H650; first compound 0.01581 µM) was 0.959 and the relative viability (NCI-H650; first compound 0.05 µM) was 0.817. It also gave a relative viability (NCI-H650; first compound 0.1581 µM) of 0.767, a relative viability (NCI-H650; first compound 0.5 µM) of 0.837 and a relative viability (201T; first compound 0.005 µM) of 1.16. The relative viability (201T; first compound 0.01581 µM) was 1.13, the relative viability (201T; first compound 0.05 µM) was 1 and the relative viability (201T; first compound 0.1581 µM) was 1.1. For the same compound, the relative viability (201T; first compound 0.5 µM) was 1.1, the relative viability (COR-L23; first compound 0.005 µM) was 0.964 and the relative viability (COR-L23; first compound 0.01581 µM) was 1.03. It also gave a relative viability (COR-L23; first compound 0.05 µM) of 1.15, a relative viability (COR-L23; first compound 0.1581 µM) of 0.929 and a relative viability (COR-L23; first compound 0.5 µM) of 0.975. The relative viability (NCI-H838; first compound 0.005 µM) was 0.65, the relative viability (NCI-H838; first compound 0.01581 µM) was 1.19 and the relative viability (NCI-H838; first compound 0.05 µM) was 1.17. It also gave a relative viability (NCI-H838; first compound 0.1581 µM) of 0.75, a relative viability (NCI-H838; first compound 0.5 µM) of 0.81 and a relative viability (NCI-H1666; first compound 0.005 µM) of 0.791. The relative viability (NCI-H1666; first compound 0.01581 µM) was 0.825, the relative viability (NCI-H1666; first compound 0.05 µM) was 0.764 and the relative viability (NCI-H1666; first compound 0.1581 µM) was 0.782. The relative viability (NCI-H1666; first compound 0.5 µM) was 0.805, the relative viability (NCI-H441; first compound 0.005 µM) was 0.349 and the relative viability (NCI-H441; first compound 0.01581 µM) was 0.737. For the same compound, the relative viability (NCI-H441; first compound 0.05 µM) was 0.379, the relative viability (NCI-H441; first compound 0.1581 µM) was 0.424 and the relative viability (NCI-H441; first compound 0.5 µM) was 0.496. It also gave a relative viability (HARA; first compound 0.005 µM) of 1.04, a relative viability (HARA; first compound 0.01581 µM) of 1.11 and a relative viability (HARA; first compound 0.05 µM) of 0.643. It also gave a relative viability (HARA; first compound 0.1581 µM) of 1.08, a relative viability (HARA; first compound 0.5 µM) of 1.18 and a relative viability (A-427; first compound 0.005 µM) of 1.06. It also gave a relative viability (A-427; first compound 0.01581 µM) of 1.04, a relative viability (A-427; first compound 0.05 µM) of 0.819 and a relative viability (A-427; first compound 0.1581 µM) of 1.02. For the same compound, the relative viability (A-427; first compound 0.5 µM) was 0.949, the relative viability (EKVX; first compound 0.005 µM) was 1.01 and the relative viability (EKVX; first compound 0.01581 µM) was 1.01. It also gave a relative viability (EKVX; first compound 0.05 µM) of 0.68, a relative viability (EKVX; first compound 0.1581 µM) of 1.04 and a relative viability (EKVX; first compound 0.5 µM) of 0.963. For the same compound, the relative viability (NCI-H1975; first compound 0.005 µM) was 0.389, the relative viability (NCI-H1975; first compound 0.01581 µM) was 0.354 and the relative viability (NCI-H1975; first compound 0.05 µM) was 0.381. For the same compound, the relative viability (NCI-H1975; first compound 0.1581 µM) was 0.258, the relative viability (NCI-H1975; first compound 0.5 µM) was 0.255 and the relative viability (HCC-827; first compound 0.005 µM) was 1.02. It also gave a relative viability (HCC-827; first compound 0.01581 µM) of 1.21, a relative viability (HCC-827; first compound 0.05 µM) of 0.87 and a relative viability (HCC-827; first compound 0.1581 µM) of 1.08. The relative viability (HCC-827; first compound 0.5 µM) was 0.999, the relative viability (NCI-H596; first compound 0.005 µM) was 1.22 and the relative viability (NCI-H596; first compound 0.01581 µM) was 0.81. The relative viability (NCI-H596; first compound 0.05 µM) was 0.904, the relative viability (NCI-H596; first compound 0.1581 µM) was 1.22 and the relative viability (NCI-H596; first compound 0.5 µM) was 0.914. The relative viability (HCC-15; first compound 0.005 µM) was 0.941, the relative viability (HCC-15; first compound 0.01581 µM) was 0.995 and the relative viability (HCC-15; first compound 0.05 µM) was 0.85. For the same compound, the relative viability (HCC-15; first compound 0.1581 µM) was 1.06, the relative viability (HCC-15; first compound 0.5 µM) was 1 and the relative viability (HCC-44; first compound 0.005 µM) was 0.859. The relative viability (HCC-44; first compound 0.01581 µM) was 0.912, the relative viability (HCC-44; first compound 0.05 µM) was 0.859 and the relative viability (HCC-44; first compound 0.1581 µM) was 0.927. The relative viability (HCC-44; first compound 0.5 µM) was 0.882, the relative viability (NCI-H23; first compound 0.005 µM) was 0.894 and the relative viability (NCI-H23; first compound 0.01581 µM) was 1.3. It also gave a relative viability (NCI-H23; first compound 0.05 µM) of 1.24, a relative viability (NCI-H23; first compound 0.1581 µM) of 1.02 and a relative viability (NCI-H23; first compound 0.5 µM) of 1.02. It also gave a relative viability (NCI-H1792; first compound 0.005 µM) of 0.976, a relative viability (NCI-H1792; first compound 0.01581 µM) of 1.01 and a relative viability (NCI-H1792; first compound 0.05 µM) of 0.995. It also gave a relative viability (NCI-H1792; first compound 0.1581 µM) of 0.964, a relative viability (NCI-H1792; first compound 0.5 µM) of 0.934 and a relative viability (COR-L 105; first compound 0.005 µM) of 0.977. For the same compound, the relative viability (COR-L 105; first compound 0.01581 µM) was 1.31, the relative viability (COR-L 105; first compound 0.05 µM) was 0.712 and the relative viability (COR-L 105; first compound 0.1581 µM) was 0.875. For the same compound, the relative viability (COR-L 105; first compound 0.5 µM) was 0.584, the relative viability (NCI-H1437; first compound 0.005 µM) was 0.503 and the relative viability (NCI-H1437; first compound 0.01581 µM) was 0.589. For the same compound, the relative viability (NCI-H1437; first compound 0.05 µM) was 0.589, the relative viability (NCI-H1437; first compound 0.1581 µM) was 0.495 and the relative viability (NCI-H1437; first compound 0.5 µM) was 0.47. For the same compound, the relative viability (BEN; first compound 0.005 µM) was 0.826, the relative viability (BEN; first compound 0.01581 µM) was 0.807 and the relative viability (BEN; first compound 0.05 µM) was 0.664. It also gave a relative viability (BEN; first compound 0.1581 µM) of 0.789 and a relative viability (BEN; first compound 0.5 µM) of 0.339.
